These results are taken from paper PMC9105972 (International Journal of Molecular Sciences, 2022).

Where two headings read alike, the source gives them in different places.

By Ki is commonly meant the equilibrium dissociation constant of an inhibitor or competing ligand from its target. For orientation: IC50 means the concentration needed to halve the response being measured.

Test [1] addresses AChE from Torpedo californica (TcAChE). As to conditions: cited from earlier work.
The target in test [2] is human brain AChE (HuAChE). As to conditions: cited from earlier work.
Test [3] deals with AChE. The note with it: in vivo, rats, mice and rabbits; cited from earlier work.
In test [4] the test system is AChE. The note with it: cited from earlier work.
The target in a further test is T1, TcAChE (Tetronarce californica, UniProt P04058).
T1 construct: TcAChE was isolated and purified as previously described; from tissue
T1 sequence (P04058 22-586): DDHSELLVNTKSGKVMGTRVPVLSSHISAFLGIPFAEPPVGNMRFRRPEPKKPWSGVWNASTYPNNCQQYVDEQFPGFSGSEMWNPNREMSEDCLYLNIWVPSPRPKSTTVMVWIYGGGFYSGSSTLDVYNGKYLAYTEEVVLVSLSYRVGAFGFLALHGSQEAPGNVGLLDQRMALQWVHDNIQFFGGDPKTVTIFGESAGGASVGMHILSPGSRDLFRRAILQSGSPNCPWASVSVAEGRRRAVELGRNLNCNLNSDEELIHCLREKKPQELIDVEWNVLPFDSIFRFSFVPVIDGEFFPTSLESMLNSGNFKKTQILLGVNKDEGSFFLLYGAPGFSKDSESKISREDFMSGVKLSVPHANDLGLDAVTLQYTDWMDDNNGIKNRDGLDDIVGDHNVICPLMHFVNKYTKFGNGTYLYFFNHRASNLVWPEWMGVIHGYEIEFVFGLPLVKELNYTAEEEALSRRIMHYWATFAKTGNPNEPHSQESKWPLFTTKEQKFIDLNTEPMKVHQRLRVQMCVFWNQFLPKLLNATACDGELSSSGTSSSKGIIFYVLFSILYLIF
Kind of test: Pre-steady-state analysis by global fitting of full progress curves (ENZO). It is filed as biochemical, Torpedo californica.

Take `COc1ccc2c3c1O[C@H]1C[C@@H](O)C=C[C@@]31CCN(C)C2` [GAL, galantamine]: the inhibition constant (Ki) in test [1] was 0.2 µM; in test [2] (human brain AChE, competitive inhibition, 1976), 0.052 µM; in test [2] (recombinant form of HuAChE, 2003) it was 0.52 µM. In addition, the “times weaker AChE inhibitor than donepezil” value in the test with AChE [3] is given as […]. Further, the IC50 with AChE [4] (highest of 15 BRENDA entries) is […]; with AChE [4] (lowest of 15 BRENDA entries) it was […].
Regarding `C[N+](C)(C)CCSSc1ccc([N+](=O)[O-])c(C(=O)[O-])c1` [thiocholine-TNB, thiocholine-thionitrobenzoic acid], the Ki at TcAChE (TcAChE 200 pM, ATCh 35 µM, initial thiocholine-TNB 0 to ~150 µM, competitive, read-out: Ki for product inhibition) was 21.5 ± 0.38 µM. The inhibition mechanism result against TcAChE (fit of full progress curves) is “competitive inhibition mechanism”.
